Reference: PubChem BioAssay AID180 (DTP/NCI, 2004)
“And” between values parts separate entries of the source, which are not always exact repeats. Equal entries are not always repeated.

Tested on: BDF1 mice, Adenocarcinoma 755 s.c., tumor weight T/C
Experiment: NCI In Vivo Anticancer Drug Screen. Data for tumor model Adenocarcinoma 755 (subcutaneous) in B6D2F1 (BDF1) mice
Details: endpoint: mean tumor weight, higher = larger tumour
Outline: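 Readout: T/C, i.e. treated-group measurement over vehicle-control measurement. Endpoint is survival or tumor size in tumor-bearing mice given compound.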

[1] = dose: 15.0 mg/kg/injection, schedule: Q01DX011 (ip), vehicle: methylcellulose (MC)
[2] = dose: 31.0 mg/kg/injection, schedule: Q01DX011 (ip), vehicle: methylcellulose (MC)
[3] = dose: 25.0 mg/kg/injection, schedule: Q01DX011 (ip), vehicle: methylcellulose (MC)
[4] = dose: 75.0 mg/kg/injection, schedule: Q01DX011 (ip), vehicle: methylcellulose (MC)
[5] = dose: 62.0 mg/kg/injection, schedule: Q01DX011 (ip), vehicle: methylcellulose (MC)
[6] = dose: 30.0 mg/kg/injection, schedule: Q01DX011 (ip), vehicle: carboxymethylcellulose (CMC)

SMILES: CCC(C)n1ncc2c(N(C)C)ncnc21 (configuration not stated)
- T/C (dose: 16.25 mg/kg/injection, schedule: Q01DX011 (ip), vehicle: saline): 54 % of control and 73 % of control
- T/C (dose: 32.5 mg/kg/injection, schedule: Q01DX011 (ip), vehicle: saline): 42 % of control and 46 % of control
- T/C (dose: 65.0 mg/kg/injection, schedule: Q01DX011 (ip), vehicle: saline): 6 % of control

SMILES: CCc1c(Cl)nc(N)nc1Nc1ccc(Cl)c(Cl)c1
- T/C [1]: 117 % of control
- T/C [2]: 123 % of control

SMILES: CSc1ncnc2c1ncn2C1CCCS1 (configuration not stated)
- T/C [3]: 61 % of control
- T/C [4]: 66 % of control
- T/C (dose: 225.0 mg/kg/injection, schedule: Q01DX011 (ip), vehicle: methylcellulose (MC)): 54 % of control

SMILES: CCC(=O)OCC1OC(n2cnc3c(=S)nc(N)[nH]c32)C(OC(=O)CC)C1OC(=O)CC (configuration not stated)
- T/C (dose: 1.5 mg/kg/injection, schedule: Q01DX011 (ip), vehicle: carboxymethylcellulose (CMC)): 96 % of control
- T/C (dose: 3.0 mg/kg/injection, schedule: Q01DX011 (ip), vehicle: carboxymethylcellulose (CMC)): 17 % of control
- T/C (dose: 6.0 mg/kg/injection, schedule: Q01DX011 (ip), vehicle: carboxymethylcellulose (CMC)): 3 % of control
- T/C (dose: 12.0 mg/kg/injection, schedule: Q01DX011 (ip), vehicle: carboxymethylcellulose (CMC)): 1 % of control

SMILES: CN(C)/N=N/c1nc[nH]c1C(N)=O
- T/C (dose: 5.0 mg/kg/injection, schedule: Q01DX011 (ip), vehicle: carboxymethylcellulose (CMC)): 79 % of control
- T/C (dose: 10.0 mg/kg/injection, schedule: Q01DX011 (ip), vehicle: carboxymethylcellulose (CMC)): 59 % of control
- T/C (dose: 12.0 mg/kg/injection, schedule: Q01DX011 (ip), vehicle: methylcellulose (MC)): 50 % of control
- T/C (dose: 16.0 mg/kg/injection, schedule: Q01DX011 (ip), vehicle: methylcellulose (MC)): 54 % of control
- T/C (dose: 20.0 mg/kg/injection, schedule: Q01DX011 (ip), vehicle: carboxymethylcellulose (CMC)): 53 % of control and 57 % of control
- T/C (dose: 20.0 mg/kg/injection, schedule: Q01DX011 (ip), vehicle: saline): 64 % of control
- T/C [3]: 37 % of control
- T/C (dose: 31.0 mg/kg/injection, schedule: Q01DX011 (ip), vehicle: carboxymethylcellulose (CMC)): 52 % of control
- T/C [2]: 62 % of control
- T/C (dose: 40.0 mg/kg/injection, schedule: Q01DX011 (ip), vehicle: saline): 63 % of control
- T/C (dose: 50.0 mg/kg/injection, schedule: Q01DX011 (ip), vehicle: methylcellulose (MC)): 30 % of control
- T/C (dose: 62.0 mg/kg/injection, schedule: Q01DX011 (ip), vehicle: carboxymethylcellulose (CMC)): 47 % of control
- T/C [5]: 94 % of control
- T/C (dose: 62.5 mg/kg/injection, schedule: Q01DX011 (ip), vehicle: carboxymethylcellulose (CMC)): 55 % of control
- T/C (dose: 80.0 mg/kg/injection, schedule: Q01DX011 (ip), vehicle: saline): 30 % of control
- T/C (dose: 100.0 mg/kg/injection, schedule: Q01DX011 (ip), vehicle: methylcellulose (MC)): 22 % of control
- T/C (dose: 160.0 mg/kg/injection, schedule: Q01DX011 (ip), vehicle: saline): 17 % of control
- T/C (dose: 600.0 mg/kg/injection, schedule: Q01DX011 (ip), vehicle: saline): 3 % of control

SMILES: Nc1nc(SCc2ccc(Cl)cc2Cl)c2ncn(C3OC(CO)C(O)C3O)c2n1 (configuration not stated)
- T/C (dose: 4.69 mg/kg/injection, schedule: Q01DX011 (ip), vehicle: methylcellulose (MC)): 51 % of control
- T/C (dose: 9.38 mg/kg/injection, schedule: Q01DX011 (ip), vehicle: methylcellulose (MC)): 49 % of control
- T/C (dose: 18.75 mg/kg/injection, schedule: Q01DX011 (ip), vehicle: methylcellulose (MC)): 21 % of control
- T/C (dose: 37.5 mg/kg/injection, schedule: Q01DX011 (ip), vehicle: methylcellulose (MC)): 2 % of control

SMILES: C[C@H]1C[C@H]2[C@@H]3CC[C@](O)(C(=O)CO)[C@@]3(C)C[C@H](O)[C@]2(F)[C@@]2(C)C=CC(=O)C=C12
- T/C (dose: 7.0 mg/kg/injection, schedule: Q01DX011 (sc), vehicle: steriod suspending solution): 39 % of control and 49 % of control
- T/C (dose: 30.0 mg/kg/injection, schedule: Q01DX011 (sc), vehicle: steriod suspending solution): 7 % of control and 16 % of control

SMILES: S=P(N1CCCCCC1)(N1CC1)N1CC1
- T/C (dose: 1.0 mg/kg/injection, schedule: Q01DX011 (ip), vehicle: carboxymethylcellulose (CMC)): 92 % of control
- T/C (dose: 1.75 mg/kg/injection, schedule: Q01DX011 (ip), vehicle: saline): 58 % of control
- T/C (dose: 2.0 mg/kg/injection, schedule: Q01DX011 (ip), vehicle: carboxymethylcellulose (CMC)): 90 % of control
- T/C (dose: 3.13 mg/kg/injection, schedule: Q01DX011 (ip), vehicle: saline): 68 % of control
- T/C (dose: 3.5 mg/kg/injection, schedule: Q01DX011 (ip), vehicle: saline): 70 % of control
- T/C (dose: 4.0 mg/kg/injection, schedule: Q01DX011 (ip), vehicle: carboxymethylcellulose (CMC)): 38 % of control
- T/C (dose: 6.25 mg/kg/injection, schedule: Q01DX011 (ip), vehicle: saline): 26 % of control and 50 % of control
- T/C (dose: 6.75 mg/kg/injection, schedule: Q01DX011 (ip), vehicle: methylcellulose (MC)): 36 % of control
- T/C (dose: 7.0 mg/kg/injection, schedule: Q01DX011 (ip), vehicle: saline): 42 % of control
- T/C (dose: 7.5 mg/kg/injection, schedule: Q01DX011 (ip), vehicle: carboxymethylcellulose (CMC)): 96 % of control
- T/C (dose: 8.0 mg/kg/injection, schedule: Q01DX011 (ip), vehicle: carboxymethylcellulose (CMC)): 23 % of control
- T/C (dose: 13.5 mg/kg/injection, schedule: Q01DX011 (ip), vehicle: methylcellulose (MC)): 33 % of control
- T/C (dose: 13.5 mg/kg/injection, schedule: Q01DX011 (ip), vehicle: saline): 29 % of control
- T/C (dose: 14.0 mg/kg/injection, schedule: Q01DX011 (ip), vehicle: saline): 5 % of control
- T/C (dose: 15.0 mg/kg/injection, schedule: Q01DX011 (ip), vehicle: carboxymethylcellulose (CMC)): 43 % of control
- T/C (dose: 16.0 mg/kg/injection, schedule: Q01DX011 (ip), vehicle: carboxymethylcellulose (CMC)): 6 % of control
- T/C (dose: 27.0 mg/kg/injection, schedule: Q01DX011 (ip), vehicle: saline): 25 % of control
- T/C [6]: 10 % of control
- T/C (dose: 54.0 mg/kg/injection, schedule: Q01DX011 (ip), vehicle: saline): 24 % of control

SMILES: CCOc1ccccc1Nc1nc(N)nc(Cl)c1CC
- T/C [1]: 73 % of control
- T/C [2]: 79 % of control
- T/C [5]: 87 % of control
- T/C (dose: 125.0 mg/kg/injection, schedule: Q01DX011 (ip), vehicle: methylcellulose (MC)): 98 % of control
- T/C (dose: 250.0 mg/kg/injection, schedule: Q01DX011 (ip), vehicle: methylcellulose (MC)): 100 % of control

SMILES: Nc1[nH]c(=O)[nH]c(=O)c1C(=O)CCl
- T/C [6]: 77 % of control

SMILES: CCNS(=O)(=O)c1ncnc2nc[nH]c12
- T/C (dose: 6.0 mg/kg/injection, schedule: Q01DX011 (ip), vehicle: other): 94 % of control
- T/C (dose: 6.2 mg/kg/injection, schedule: Q01DX011 (ip), vehicle: methylcellulose (MC)): 66 % of control
- T/C (dose: 12.0 mg/kg/injection, schedule: Q01DX011 (ip), vehicle: other): 32 % of control
- T/C (dose: 12.5 mg/kg/injection, schedule: Q01DX011 (ip), vehicle: methylcellulose (MC)): 36 % of control
- T/C [3]: 7 % of control and 10 % of control
- T/C (dose: 25.0 mg/kg/injection, schedule: Q01DX011 (ip), vehicle: other): 15 % of control
- T/C (dose: 50.0 mg/kg/injection, schedule: Q01DX011 (ip), vehicle: other): 5 % of control
- T/C (dose: 100.0 mg/kg/injection, schedule: Q01DX011 (ip), vehicle: other): 10 % of control
- T/C (dose: 150.0 mg/kg/injection, schedule: Q01DX011 (ip), vehicle: other): 5 % of control

SMILES: Nc1nc(SCc2ccccc2Cl)c2ncn(C3CCCCC3)c2n1
- T/C [3]: 180 % of control
- T/C [4]: 166 % of control
